Assay results from patent publication US5494820A, “Streptomyces braegensis strain and its cultivation in a process for producing C9 -desoxo-FK-520” (Pfizer Inc., priority 1994, dated 1996).

Legend:
mouse T lymphocytes = test: Immunosuppressive activity (proliferation of T lymphocytes stimulated with ionomycin plus PMA, tritiated thymidine uptake); type: cell-based, mouse (C57BI/6); details: general statement; no value given
Procedure: A positive sample in this assay will inhibit-T-cell proliferation, as indicated by reduced tritiated thymidine uptake.
Spleens from C57BI/6 mice are taken under sterile conditions and gently dissociated in ice-cold RPMI 1640 (trademark) culture medium (GIBCO (trademark)) supplemented with 10% heat-inactivated fetal calf serum (GIBCO (trademark)). Cells are pelleted by centrifugation at 1500 rpm for 8 minutes. Contaminating red cells are removed by treating the pellet with ammonium chloride lysing buffer (GIBCO (trademark)) for 2 minutes at 4° C. Cold medium is added and cells are again centrifuged at 1500 rpm for 8 minutes. […]
Purified T lymphocytes are resuspended at 10^6 cells/ml in complete culture medium composed of RPMI 1640 (trademark) medium with 10% heat-inactivated fetal calf serum, […] glutamine, 1 mM sodium pyruvate, 20 µm 2-mercaptoethanol and 50 μg/ml gentamicin. […] The proliferation of T lymphocytes is assessed by measurement of tritiated […] incorporation. […] Radioactivity of filter discs corresponding to individual wells is measured by standard liquid scintillation counting method (Beta plate counter). Mean counts per minute of replicate wells are calculated and the results expressed as percent inhibition of tritiated thymidine uptake (proliferation) as follows: [formula]

human FK-binding protein = test: Inhibition of rotamase activity of FK-binding protein; type: biochemical
[1] = system: pathogenic filamentus fungal organisms; test: Antimicrobial activity (general statement)

In the case of `CCC1C=C(C)CC(C)CC(OC)C2OC(O)(CC(=O)N3CCCCC3C(=O)OC(C(C)=CC3CCC(O)C(OC)C3)C(C)C(O)CC1=O)C(C)CC2OC` (stereo not drawn) [compound of the formula I, C9 -desoxo-FK-520], the immunosuppressive activity (mouse T lymphocytes) is reported as “has immunosuppressive activity”, the “inhibition of the rotamase activity of human FK-binding protein” value (human FK-binding protein) is reported as “inhibits the rotamase activity of human FK-binding protein” and the antimicrobial activity [1] is reported as “has antimicrobial activity”.
